BindingDB's records for doi:10.7270/Q2QR4VH9 (University of Pittsburgh, 2006)
pIC50: −log10 of the molar value.

The compounds below were run against T1, Dual specificity protein phosphatase 1 (Homo sapiens, UniProt P28562) (assay: MKP-1 phosphatase inhibitors, repeat potency, dose response, biochemical, reproducibility testing, probe assessment (AID 563)).
T1 sequence (P28562 whole entry): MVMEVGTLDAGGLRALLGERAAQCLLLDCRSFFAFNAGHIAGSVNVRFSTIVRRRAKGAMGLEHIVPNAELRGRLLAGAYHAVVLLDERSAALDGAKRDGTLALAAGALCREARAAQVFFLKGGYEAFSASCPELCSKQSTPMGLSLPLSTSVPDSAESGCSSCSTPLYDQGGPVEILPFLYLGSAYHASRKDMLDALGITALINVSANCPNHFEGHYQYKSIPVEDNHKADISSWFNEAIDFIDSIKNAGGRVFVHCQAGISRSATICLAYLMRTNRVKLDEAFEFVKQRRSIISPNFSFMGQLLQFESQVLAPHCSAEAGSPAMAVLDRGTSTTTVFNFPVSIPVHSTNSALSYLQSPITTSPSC
COc1ccc2noc3c2c1C(=O)c1ccccc1-3 [MLS000106874] showed a pIC50 of 4.34.
In the case of O=C1C=C(NCc2ccc(Cl)c(Cl)c2)CC1 [3-[(3,4-dichlorobenzyl)amino]cyclopent-2-en-1-one], the pIC50 was under 4.30.
Compound [O-]/[N+](=C\c1ccncc1)c1ccccc1 has a pIC50 of under 4.30.
COc1ccc(Br)cc1C=c1sc2nc(-c3ccco3)nn2c1=O [5-[(5-bromanyl-2-methoxy-phenyl)methylidene]-2-(furan-2-yl)-[1,3]thiazolo[3,2-b][1,2,4]triazol-6-one] gave a pIC50 of 4.89.
Work on O=C1C=Cc2ccccc2C1=O [1,2-dihydronaphthalene-1,2-dione] yielded a pIC50 of 4.44.
Work on CCOc1ccc2noc3c2c1C(=O)c1ccccc1-3 [MLS000106837] yielded a pIC50 of under 4.30.
In the case of CCCCn1c(SCC(=O)c2ccc(OC)cc2OC)nc2cc(S(N)(=O)=O)ccc21 [1-butyl-2-[2-(2,4-dimethoxyphenyl)-2-oxidanylidene-ethyl]sulfanyl-benzimidazole-5-sulfonamide], the pIC50 was 4.34.
Nc1c(N2CCCC2)cc(Cl)c2nonc12 [(7-chloro-5-pyrrolidino-benzofurazan-4-yl)amine] gave a pIC50 of under 4.30.
COCCCn1c(N)c(C(=O)NCCC(C)C)c2nc3ccccc3nc21 [MLS000041744] showed a pIC50 of under 4.30.
Compound COc1ccc(-n2c(NC(=O)c3ccco3)c(C#N)c3nc4ccccc4nc32)cc1 [MLS000079925] has a pIC50 of 4.47.
In the case of Nc1nc2c(s1)CCc1c-2cnn1-c1ccccc1 [MLS000085948], the pIC50 was under 4.30.
Work on Cn1ncnc2c(=O)n(C)c(=O)nc1-2 yielded a pIC50 of 6.13.
CCn1nc(-c2ccccc2)nc2c(=O)n(C)c(=O)nc1-2 [1-Ethyl-6-methyl-3-phenyl-1H-pyrimido[5,4-e][1,2,4]triazine-5,7-dione] was tested, and the pIC50 was 5.93.
In the case of Cc1c(N=c2c(=O)c3ccccc3c2=O)c(=O)n(-c2ccccc2)n1C [MLS000105950], the pIC50 was 4.58.
Compound COc1cc(/C=C(/C#N)c2ccc(F)cc2)ccc1OCc1ccc(C(=O)O)o1 [5-({4-[2-cyano-2-(4-fluorophenyl)vinyl]-2-methoxyphenoxy}methyl)-2-furoic acid] has a pIC50 of under 4.30.
In the case of [O-]/[N+](=C\c1ccc(OC(F)F)cc1)c1ccccc1 [1-[4-(difluoromethoxy)phenyl]-N-phenylmethanimine oxide], the pIC50 was under 4.30.
COc1ccc(Cn2c(C)nc3c(c2=O)c2nc4ccccc4nc2n3Cc2ccco2)cc1 [MLS000079944] was tested, and the pIC50 was 4.66.
Cc1cccc(NC(=O)c2cc(NC(=O)C3CCCCC3C(=O)O)ccc2N2CCCCC2)c1 (stereo not given) [2-({[3-{[(3-methylphenyl)amino]carbonyl}-4-(1-piperidinyl)phenyl]amino}carbonyl)cyclohexanecarboxylic acid] gave a pIC50 of under 4.30.
With CCn1nc(-c2cccs2)nc2c(=O)n(C)c(=O)nc1-2 [1-ethyl-6-methyl-3-thiophen-2-yl-pyrimido[5,4-e][1,2,4]triazine-5,7-dione] the pIC50 was 5.91.
N#Cc1c(N2CCCC2)nc(N)c2c(N)nc(N3CCCC3)cc12 [SMR000061605] was tested, and the pIC50 was 4.73.
O=C1C(=C2C(=O)c3ccccc3C2=O)Nc2ccccc21 [MLS000071738] showed a pIC50 of under 4.30.
CCCSc1nnc(NC(=O)c2sc3nc(-c4cccs4)ccc3c2N)s1 [3-amino-N-(5-propylsulfanyl-1,3,4-thiadiazol-2-yl)-6-thiophen-2-ylthieno[2,3-b]pyridine-2-carboxamide] showed a pIC50 of 4.66.
O=C(OC1CCCCC1)c1ccc2c(c1)C1C=CCC1C(C(=O)O)N2 (stereo not given) [SMR000019385] showed a pIC50 of 4.84.
Compound CC(C)(C)N1C(=O)Cc2c1nc(N)c1c(N)nc(N3CCCCC3CO)c(C#N)c21 (stereo not given) [5,6-bis(azanyl)-3-tert-butyl-8-[2-(hydroxymethyl)piperidin-1-yl]-2-oxidanylidene-1H-pyrrolo[2,3-c][2,7]naphthyridine-9-carbonitrile] has a pIC50 of under 4.30.
O=C(NC1(O)C(=O)c2ccccc2C1=O)c1ccccc1 [N-(2-hydroxy-1,3-dioxo-2-indenyl)benzamide] was tested, and the pIC50 was 4.32.
In the case of Cc1cc(C)n2c(SCC(=O)N3CCN(S(=O)(=O)c4ccc(Cl)cc4)CC3)nnc2n1 [1-[4-(4-chlorophenyl)sulfonyl-1-piperazinyl]-2-[(5,7-dimethyl-[1,2,4]triazolo[4,3-a]pyrimidin-3-yl)thio]ethanone], the pIC50 was 4.31.
For CCn1c(SCC(=O)Nc2ccc3c(c2)c2ccccc2n3CC)nnc1-c1ccco1 [MLS000050867], the pIC50 was 4.69.
With COc1ccc(-c2cc3nc(C4CCN(C(=O)OC(C)(C)C)CC4)c(C(=O)O)cn3n2)cc1 [2-(4-methoxyphenyl)-5-[1-[(2-methylpropan-2-yl)oxy-oxomethyl]-4-piperidinyl]-6-pyrazolo[1,5-a]pyrimidinecarboxylic acid] the pIC50 was 4.47.
In the case of CCOc1ccc(-c2cc3nc(C4CCN(C(=O)OC(C)(C)C)CC4)c(C(=O)O)cn3n2)cc1 [2-(4-ethoxyphenyl)-5-[1-[(2-methylpropan-2-yl)oxy-oxomethyl]-4-piperidinyl]-6-pyrazolo[1,5-a]pyrimidinecarboxylic acid], the pIC50 was 4.52.
Cc1cc(NC(=O)c2ccc(S(=O)(=O)N3CCCC3)cc2)nc2c1c(=O)oc1ccccc12 [MLS000091355] showed a pIC50 of 4.60.
O=C1Nc2ccccc2SC(c2ccccc2)C1O (stereo not given) [3-hydroxy-2-phenyl-2,3-dihydro-1,5-benzothiazepin-4(5H)-one] was tested, and the pIC50 was 4.48.
In the case of CCCCCC#CCC#CCC#CCC#CCCCC(=O)O, the pIC50 was 4.92.
Compound Cc1nc2cc(-c3cccc(F)c3)nn2c(C)c1CCC(=O)N1CCC2(CC1)OCCO2 [1-(1,4-dioxa-8-azaspiro[4.5]decan-8-yl)-3-[2-(3-fluorophenyl)-5,7-dimethyl-6-pyrazolo[1,5-a]pyrimidinyl]-1-propanone] has a pIC50 of under 4.30.
In the case of FC(F)(F)c1ccc(N2CCOCC2)c(Nc2nc3ccccc3n3cnnc23)c1 [MLS000093276], the pIC50 was under 4.30.
CC(=O)[C@@H]1[C@@H]2C(=O)N(c3ccc(F)c(Cl)c3)C(=O)[C@@H]2C2c3ccccc3C=CN21 (stereo not given in full) [MLS000040594] gave a pIC50 of under 4.30.
In the case of CCOc1cc(/C=C(/C#N)c2ccc(F)cc2)ccc1OCc1ccc(C(=O)O)o1 [5-[[4-[(E)-2-cyano-2-(4-fluorophenyl)ethenyl]-2-ethoxyphenoxy]methyl]furan-2-carboxylic acid], the pIC50 was 4.44.
With CCc1ccc(NC(=O)CSc2nc3ccccc3c(=O)n2CCN2CCOCC2)cc1 [MLS000095236] the pIC50 was under 4.30.
N#Cc1c(NC(=O)c2ccc(Br)o2)n(-c2ccccc2)c2nc3ccccc3nc12 [5-bromanyl-N-(3-cyano-1-phenyl-pyrrolo[3,2-b]quinoxalin-2-yl)furan-2-carboxamide] gave a pIC50 of 4.61.
In the case of COC(=O)c1ccccc1NC(=O)CN1C(=O)C2CCCN2c2ncc(Cl)cc21 (stereo not given) [MLS000094302], the pIC50 was 4.33.
O=C(Nc1ccc2nc(-c3ccco3)c(-c3ccco3)nc2c1)N1CCCCCC1 gave a pIC50 of 4.58.
Work on [O-]/[N+](=C/c1ccc(F)cc1)c1ccccc1 [(E)-(4-fluorobenzylidene)(phenyl)azane oxide] yielded a pIC50 of under 4.30.
O=C(c1cccs1)c1no[n+]([O-])c1C(=O)c1cccs1 [(5-oxidanidyl-4-thiophen-2-ylcarbonyl-1,2,5-oxadiazol-5-ium-3-yl)-thiophen-2-yl-methanone] showed a pIC50 of 5.19.
In the case of O=C(Nc1ccccc1)c1ccc2nc(-c3ccco3)c(-c3ccco3)nc2c1 [2,3-di-2-furyl-N-phenyl-6-quinoxalinecarboxamide], the pIC50 was 4.45.
Compound O=C1c2ccccc2-c2onc3ccc(NCCCn4ccnc4)c1c23 [SMR000044769] has a pIC50 of 4.56.
Work on CC(C)Cn1c(N)c(C(=O)COC(=O)c2cc(-c3ccco3)nc3ccccc23)c(=O)n(C)c1=O [2-(2-furanyl)-4-quinolinecarboxylic acid [2-[4-amino-1-methyl-3-(2-methylpropyl)-2,6-dioxo-5-pyrimidinyl]-2-oxoethyl] ester] yielded a pIC50 of 4.62.
In the case of CC1=C(/C=C/C(C)=C/C=C/C(C)=C/C(=O)O)C(C)(C)CCC1 [ALL-TRANS-RETINOIC ACID], the pIC50 was 4.37.
N#Cc1c(N)sc(=S)c2c1CCN(Cc1ccccc1)C2 [3-Amino-7-benzyl-1-thioxo-5,6,7,8-tetrahydro-1H-thiopyrano[3,4-c]pyridine-4-carbonitrile] showed a pIC50 of 5.13.
CCCCn1c(NC(=O)c2ccccc2)c(C#N)c2nc3ccccc3nc21 [SMR000060333] gave a pIC50 of 4.52.
Compound Cc1ccc(/C=C/C2=Cc3c(sc(NC(=O)CSc4nnc(N)[nH]4)c3C#N)C(C)(C)C2)o1 [2-[(5-azanyl-1H-1,2,4-triazol-3-yl)sulfanyl]-N-[3-cyano-7,7-dimethyl-5-[(E)-2-(5-methylfuran-2-yl)ethenyl]-6H-1-benzothiophen-2-yl]ethanamide] has a pIC50 of 4.75.
CCCCNC(=O)c1c(N)n(CCCOC)c2nc3ccccc3nc12 [2-amino-N-butyl-1-(3-methoxypropyl)-3-pyrrolo[3,2-b]quinoxalinecarboxamide] was tested, and the pIC50 was 4.33.
